Measured values from ChEMBL document CHEMBL1212738, “Phenotypic and genotypic characterization of Enterobacteriaceae with decreased susceptibility to carbapenems: results from large hospital-based surveillance studies in China” (2010).
≈ marks a conversion by molar mass, not a printed value.

Assays:
Citrobacter freundii [1] = test: Antimicrobial activity against Citrobacter freundii SZ63T expressing IMP-4, qnrS1by CLSI method; type: functional
Klebsiella pneumoniae [2] = test: Antimicrobial activity against Klebsiella pneumoniae ZJ18T expressing KPC-2, DHA-1 by CLSI method; type: functional
Escherichia coli [3] = test: Antimicrobial activity against carbapenem-resistant Escherichia coli ZJ86 expressing KPC-2, TEM-1 with ompC loss by CLSI method
Escherichia coli [4] = test: Antimicrobial activity against Escherichia coli C600 by CLSI method; type: functional
Klebsiella pneumoniae [5] = test: Antimicrobial activity against carbapenem-resistant Klebsiella pneumoniae ZJ18 deficient in KPC-2, SHV-28, DHA-1, ompK35 by CLSI method; type: functional
Escherichia coli [6] = test: Antimicrobial activity against carbapenem-resistant Escherichia coli HX74 deficient in TEM-1, CTX-M-14, CTX-M-3, aac(6')-Ibcr, ompC/F by CLSI method; type: functional
Escherichia coli [7] = test: Antimicrobial activity against Escherichia coli ZJ87 expressing KPC-2, TEM-1, ompC by CLSI method; type: functional
Klebsiella pneumoniae [8] = test: Antimicrobial activity against Klebsiella pneumoniae ZJ70T expressing KPC-2 by CLSI method; type: functional
Klebsiella pneumoniae [9] = test: Antimicrobial activity against Klebsiella pneumoniae WH97 expressing SHV-33, aac(6')-Ib, ompK35 DE by CLSI method; type: functional
Klebsiella pneumoniae [10] = test: Antimicrobial activity against carbapenem-resistant Klebsiella pneumoniae XJ81 deficient in TEM-1, SHV-12, DHA-1, aac(6')-Ib, ompK35/36 by CLSI method; type: functional
Escherichia coli [11] = test: Antimicrobial activity against Escherichia coli C600 transconjugant WH77T expressing IMP-4, TEM-1, CTX-M-3, qnrS1 by CLSI method
Klebsiella pneumoniae [12] = test: Antimicrobial activity against carbapenem-resistant Klebsiella pneumoniae ZJ70 deficient in KPC-2, SHV-11, CTX-M-14, ompK35/36 by CLSI method; type: functional
Enterobacter cloacae [13] = test: Antimicrobial activity against carbapenem-resistant Enterobacter cloacae WH103 deficient in IMP-4, TEM-1, CTX-M-3, qnrS1, ompC by CLSI method; type: functional
Escherichia coli [14] = test: Antimicrobial activity against Escherichia coli C600 transconjugant SZ62T expressing IMP-4, qnrS1by CLSI method
Enterobacter cloacae [15] = test: Antimicrobial activity against carbapenem-resistant Enterobacter cloacae SZ92 deficient in IMP-4, TEM-1, CTX-M-14, DHA-1, qnrB10/B4-like, aac(6')-Ib, ompC by CLSI method; type: functional
Klebsiella aerogenes = test: Antimicrobial activity against carbapenem-resistant Enterobacter aerogenes PU41 deficient in CTX-M-14, DHA-1, qnrS1, ompC DEc, ompF by CLSI method; type: functional
Escherichia coli [16] = test: Antimicrobial activity against carbapenem-resistant Escherichia coli PU101 deficient in TEM-1, CTX-M-14, CMY-2, ompC by CLSI method; type: functional
Klebsiella pneumoniae [17] = test: Antimicrobial activity against Klebsiella pneumoniae ZJ99 expressing KPC-2, CTX-M-3, qnrS1, ompK35 DE by CLSI method; type: functional
Klebsiella pneumoniae [18] = test: Antimicrobial activity against Klebsiella pneumoniae FZ47T expressing IMP-8, TEM-1, CTX-M-14, qnrB2, aac(6')-Ib by CLSI method; type: functional
Klebsiella pneumoniae [19] = test: Antimicrobial activity against carbapenem-resistant Klebsiella pneumoniae GZ83 deficient in SHV-11, CTX-M-14, ompK35/36 by CLSI method; type: functional
Klebsiella pneumoniae [20] = test: Antimicrobial activity against carbapenem-resistant Klebsiella pneumoniae ZJ71 deficient in KPC-2, TEM-1, SHV-11, CTX-M-14, ompK35 by CLSI method; type: functional
Citrobacter freundii [21] = test: Antimicrobial activity against Citrobacter freundii RJ78 expressing CMY-2, qnrA1, aac(6')-Ib-cr, ompC by CLSI method; type: functional
Klebsiella pneumoniae [22] = test: Antimicrobial activity against carbapenem-resistant Klebsiella pneumoniae FZ49 deficient in IMP-8, TEM-1, SHV-11, CTX-M-14, qnrB2, aac(6')-Ib, ompK35/36 by CLSI method; type: functional
Escherichia coli [23] = test: Antimicrobial activity against Escherichia coli HX74T expressing CTX-M-3 by CLSI method; type: functional
Escherichia coli [24] = test: Antimicrobial activity against carbapenem-resistant Escherichia coli PU96 deficient in TEM-1, CTX-M-14, CMY-2, ompC/F by CLSI method; type: functional
Klebsiella pneumoniae [25] = test: Antimicrobial activity against carbapenem-resistant Klebsiella pneumoniae GZ66 deficient in SHV-11, DHA-1, ompK35/36 by CLSI method; type: functional
Klebsiella pneumoniae [26] = test: Antimicrobial activity against carbapenem-resistant Klebsiella pneumoniae SZ61 deficient in TEM-1, SHV-1a, CMY-2, ompK35/36 by CLSI method; type: functional
Klebsiella pneumoniae [27] = test: Antimicrobial activity against carbapenem-resistant Klebsiella pneumoniae ZJ69 deficient in SHV-28, ompK35/36 by CLSI method; type: functional
Escherichia coli [28] = test: Antimicrobial activity against Escherichia coli C600 transconjugant GZ66T expressing SHV-11, DHA-1 by CLSI method
Klebsiella pneumoniae [29] = test: Antimicrobial activity against Klebsiella pneumoniae WH77 expressing IMP-4, TEM-1, SHV-14, CTX-M-3, qnrS1 by CLSI method; type: functional
Enterobacter cloacae [30] = test: Antimicrobial activity against carbapenem-resistant Enterobacter cloacae RJ94 deficient in IMP-4, TEM-1, CTX-M-3, ompC by CLSI method; type: functional
Klebsiella pneumoniae [31] = test: Antimicrobial activity against Klebsiella pneumoniae ZJ99T expressing KPC-2, CTX-M-3, qnrS1 by CLSI method; type: functional
Escherichia coli [32] = test: Antimicrobial activity against Escherichia coli C600 transconjugant XJ81T expressing TEM-1, SHV-12, aac(6')-Ib by CLSI method
Enterobacter cloacae [33] = test: Antimicrobial activity against carbapenem-resistant Enterobacter cloacae NJ90 deficient in CTX-M-14, ompC/F by CLSI method; type: functional
Escherichia coli [34] = test: Antimicrobial activity against Escherichia coli PU102T expressing TEM-1, CTX-M-14, CMY-2 by CLSI method; type: functional
Klebsiella pneumoniae [35] = test: Antimicrobial activity against carbapenem-resistant Klebsiella pneumoniae PU3 deficient in DHA-1, aac(6')-Ib-cr, ompK35/36 by CLSI method; type: functional
Escherichia coli [36] = test: Antimicrobial activity against carbapenem-resistant Escherichia coli PU102 deficient in TEM-1, CTX-M-14, CMY-2, aac(6')-Ib, ompC DEc, ompF by CLSI method; type: functional
Escherichia coli [37] = test: Antimicrobial activity against carbapenem-resistant Escherichia coli PU43 deficient in TEM-1, CTX-M-14, aac(6')-Ib, ompC/F by CLSI method; type: functional
Escherichia coli [38] = test: Antimicrobial activity against carbapenem-resistant Escherichia coli PU60 deficient in TEM-1, CMY-2, ompC/F by CLSI method; type: functional
Klebsiella pneumoniae [39] = test: Antimicrobial activity against Klebsiella pneumoniae FZ49T expressing IMP-8, TEM-1, CTX-M-14, qnrB2, aac(6')-Ib by CLSI method; type: functional

SMILES	MIC (Citrobacter freundii [1])	MIC (Klebsiella pneumoniae [2])	MIC (Escherichia coli [3])	MIC (Escherichia coli [4])	MIC (Klebsiella pneumoniae [5])	MIC (Escherichia coli [6])	MIC (Escherichia coli [7])	MIC (Klebsiella pneumoniae [8])	MIC (Klebsiella pneumoniae [9])	MIC (Klebsiella pneumoniae [10])	MIC (Escherichia coli [11])	MIC (Klebsiella pneumoniae [12])	MIC (Enterobacter cloacae [13])	MIC (Escherichia coli [14])	MIC (Enterobacter cloacae [15])	MIC (Klebsiella aerogenes)	MIC (Escherichia coli [16])	MIC (Klebsiella pneumoniae [17])	MIC (Klebsiella pneumoniae [18])	MIC (Klebsiella pneumoniae [19])	other results
NCC[C@H](O)C(=O)N[C@@H]1C[C@H](N)[C@@H](O[C@H]2O[C@H](CN)[C@@H](O)[C@H](O)[C@H]2O)[C@H](O)[C@H]1O[C@H]1O[C@H](CO)[C@@H](O)[C@H](N)[C@H]1O [AMIKACIN]	> 256 mg/L	> 256 mg/L	1 mg/L (≈ 1.71 µM)	1 mg/L (≈ 1.71 µM)	> 256 mg/L	8 mg/L (≈ 13.7 µM)	1 mg/L (≈ 1.71 µM)	1 mg/L (≈ 1.71 µM)	1 mg/L (≈ 1.71 µM)	16 mg/L (≈ 27.3 µM)	1 mg/L (≈ 1.71 µM)	> 256 mg/L	1 mg/L (≈ 1.71 µM)	1 mg/L (≈ 1.71 µM)	1 mg/L (≈ 1.71 µM)	> 256 mg/L	4 mg/L (≈ 6.83 µM)	0.5 mg/L (≈ 0.854 µM)	> 256 mg/L	> 256 mg/L	MIC (Klebsiella pneumoniae [20]): > 256 mg/L; MIC (Citrobacter freundii [21]): 8 mg/L (≈ 13.7 µM); MIC (Klebsiella pneumoniae [22]): > 256 mg/L; MIC (Escherichia coli [23]): 2 mg/L (≈ 3.42 µM); MIC (Escherichia coli [24]): 2 mg/L (≈ 3.42 µM); MIC (Klebsiella pneumoniae [25]): > 256 mg/L; MIC (Klebsiella pneumoniae [26]): > 256 mg/L; MIC (Klebsiella pneumoniae [27]): > 256 mg/L; MIC (Escherichia coli [28]): > 256 mg/L; MIC (Klebsiella pneumoniae [29]): 1 mg/L (≈ 1.71 µM); MIC (Enterobacter cloacae [30]): 0.5 mg/L (≈ 0.854 µM); MIC (Klebsiella pneumoniae [31]): 2 mg/L (≈ 3.42 µM); MIC (Escherichia coli [32]): 16 mg/L (≈ 27.3 µM); MIC (Enterobacter cloacae [33]): > 256 mg/L; MIC (Escherichia coli [34]): 1 mg/L (≈ 1.71 µM); MIC (Klebsiella pneumoniae [35]): 16 mg/L (≈ 27.3 µM); MIC (Escherichia coli [36]): 64 mg/L (≈ 109 µM); MIC (Escherichia coli [37]): 8 mg/L (≈ 13.7 µM); MIC (Escherichia coli [38]): 32 mg/L (≈ 54.6 µM); MIC (Klebsiella pneumoniae [39]): > 256 mg/L
CO/N=C(\C(=O)N[C@@H]1C(=O)N2C(C(=O)O)=C(COC(C)=O)CS[C@H]12)c1csc(N)n1 [CEFOTAXIME]	256 mg/L (≈ 562 µM)	8 mg/L (≈ 17.6 µM)	64 mg/L (≈ 141 µM)	0.13 mg/L (≈ 0.285 µM)	128 mg/L (≈ 281 µM)	> 256 mg/L	64 mg/L (≈ 141 µM)	64 mg/L (≈ 141 µM)	128 mg/L (≈ 281 µM)	> 256 mg/L	256 mg/L (≈ 562 µM)	> 256 mg/L	> 256 mg/L	128 mg/L (≈ 281 µM)	> 256 mg/L	> 256 mg/L	> 256 mg/L	128 mg/L (≈ 281 µM)	128 mg/L (≈ 281 µM)	> 256 mg/L	MIC (Klebsiella pneumoniae [20]): 256 mg/L (≈ 562 µM); MIC (Citrobacter freundii [21]): 256 mg/L (≈ 562 µM); MIC (Klebsiella pneumoniae [22]): > 256 mg/L; MIC (Escherichia coli [23]): > 256 mg/L; MIC (Escherichia coli [24]): > 256 mg/L; MIC (Klebsiella pneumoniae [25]): 128 mg/L (≈ 281 µM); MIC (Klebsiella pneumoniae [26]): 128 mg/L (≈ 281 µM); MIC (Klebsiella pneumoniae [27]): 64 mg/L (≈ 141 µM); MIC (Escherichia coli [28]): 16 mg/L (≈ 35.1 µM); MIC (Klebsiella pneumoniae [29]): 256 mg/L (≈ 562 µM); MIC (Enterobacter cloacae [30]): > 256 mg/L; MIC (Klebsiella pneumoniae [31]): 256 mg/L (≈ 562 µM); MIC (Escherichia coli [32]): 4 mg/L (≈ 8.78 µM); MIC (Enterobacter cloacae [33]): > 256 mg/L; MIC (Escherichia coli [34]): 256 mg/L (≈ 562 µM); MIC (Klebsiella pneumoniae [35]): 128 mg/L (≈ 281 µM); MIC (Escherichia coli [36]): > 256 mg/L; MIC (Escherichia coli [37]): > 256 mg/L; MIC (Escherichia coli [38]): 256 mg/L (≈ 562 µM); MIC (Klebsiella pneumoniae [39]): 128 mg/L (≈ 281 µM)
